Experimental data as given in patent publication USRE43280E1, “Hyperforin derivatives, the use thereof and formulations containing them” (Indena S.p.A., priority 2002, dated 2012).
Where two headings read alike, the source gives them in different places.

Legend:
[1] = tested on: APPs produced by α-secretase in neuroblastoma cell line (SH-SY5Y); assay: release of APPs produced by α-secretase into the culture medium of SH-SY5Y cells; format: cell-based
[2] = tested on: rat; assay: forced swimming test (struggling, floating, swimming); format: in vivo; conditions: 3 doses: 30 minutes after the pre-test, 5 hours and 30 minutes before the test
Experimental: The compounds were administered in 3 doses: 30 minutes after the pre-test, 5 hours and 30 minutes before the test.

[3] = 10 μM, SH-SY5Y culture medium, controls = 100

| Compound | APPs % [1, 3] | Floating ([2]; 6.25 mg/Kg) | Struggling ([2]; 6.25 mg/Kg) | Swimming ([2]; 6.25 mg/Kg) | APPs % [1] | Floating ([2]; 10 mg/Kg) | Struggling ([2]; 10 mg/Kg) | Swimming ([2]; 10 mg/Kg) |
| --- | --- | --- | --- | --- | --- | --- | --- | --- |
| CC(=O)OC1=C(CCC(C)C)C(=O)[C@@]2(CCC(C)C)C[C@H](CCC(C)C)[C@@](C)(CCCC(C)C)[C@]1(C(=O)C(C)C)C2=O [Acetyloctahydrohyperforin, acetyloctahydrohyperforin] | 954% | 68.4 ± 5.7 s | 73.9 ± 5.9 s | 171.9 ± 11.4 s | – | – | – | – |
| dodecahydrohyperforin | 879% | 55.1 ± 6.2 s | 62.13 ± 5.1 s | 169.5 ± 10.1 s | – | – | – | – |
| octahydrohyperforin lithium salt | 1383% | 59.5 ± 11.3 s | 63.1 ± 5.8 s | 177.4 ± 14.9 s | – | – | – | – |
| tetrahydrohyperforin | 926% | 68.4 ± 7.6 s | 51.4 ± 4.1 s | 193.4 ± 13.2 s | – | – | – | – |
| CC(C)=CCC[C@]1(C)[C@@H](CC=C(C)C)C[C@@]2(CC=C(C)C)C(=O)[C@]1(C(=O)C(C)C)C(=O)C(CC=C(C)C)=C2O [Hyperforin] | – | 60.4 ± 7.3 s | 30.4 ± 4.6 s | 99.3 ± 10.6 s | 296% | – | – | – |
| CNCCCN1c2ccccc2CCc2ccccc21 [Desipramin, reference compound] | – | – | – | – | – | 53.0 ± 9.2 s | 148.3 ± 12.6 s | 98.8 ± 7.9 s |
